“And” between values parts separate entries of the source, which are not always exact repeats. Equal values may be shown once. Where a SMILES comes first, the peptide text is derived from it. [ ]: non-standard residue; d: D form. Sar = CNCC(=O)O
Experiments:
[1] = system: metabolizing enzymes; conditions: liver microsomes; ref Agarwal et al., 2008; cited from earlier work
[2] = system: MDCK-WT cells; assay: Cytotoxicity, MTS based assay, 4 h incubation; type: cell-based
[3] = system: metabolizing enzymes; assay: Time dependent degradation in rat liver microsomes; type: in vitro ADME; conditions: rat liver microsomes 0.3 mg/mL, 25 μM, 37 °C, 2 h
[4] = biological target: P-gp (Homo sapiens, UniProt P08183); assay: [3H]-LPV cellular uptake in MDCK-MDR1 cells; type: cell-based; conditions: compound 50 μM, DPBS pH 7.4, 37 °C, 30 min
Chain of P-gp (P08183 whole entry): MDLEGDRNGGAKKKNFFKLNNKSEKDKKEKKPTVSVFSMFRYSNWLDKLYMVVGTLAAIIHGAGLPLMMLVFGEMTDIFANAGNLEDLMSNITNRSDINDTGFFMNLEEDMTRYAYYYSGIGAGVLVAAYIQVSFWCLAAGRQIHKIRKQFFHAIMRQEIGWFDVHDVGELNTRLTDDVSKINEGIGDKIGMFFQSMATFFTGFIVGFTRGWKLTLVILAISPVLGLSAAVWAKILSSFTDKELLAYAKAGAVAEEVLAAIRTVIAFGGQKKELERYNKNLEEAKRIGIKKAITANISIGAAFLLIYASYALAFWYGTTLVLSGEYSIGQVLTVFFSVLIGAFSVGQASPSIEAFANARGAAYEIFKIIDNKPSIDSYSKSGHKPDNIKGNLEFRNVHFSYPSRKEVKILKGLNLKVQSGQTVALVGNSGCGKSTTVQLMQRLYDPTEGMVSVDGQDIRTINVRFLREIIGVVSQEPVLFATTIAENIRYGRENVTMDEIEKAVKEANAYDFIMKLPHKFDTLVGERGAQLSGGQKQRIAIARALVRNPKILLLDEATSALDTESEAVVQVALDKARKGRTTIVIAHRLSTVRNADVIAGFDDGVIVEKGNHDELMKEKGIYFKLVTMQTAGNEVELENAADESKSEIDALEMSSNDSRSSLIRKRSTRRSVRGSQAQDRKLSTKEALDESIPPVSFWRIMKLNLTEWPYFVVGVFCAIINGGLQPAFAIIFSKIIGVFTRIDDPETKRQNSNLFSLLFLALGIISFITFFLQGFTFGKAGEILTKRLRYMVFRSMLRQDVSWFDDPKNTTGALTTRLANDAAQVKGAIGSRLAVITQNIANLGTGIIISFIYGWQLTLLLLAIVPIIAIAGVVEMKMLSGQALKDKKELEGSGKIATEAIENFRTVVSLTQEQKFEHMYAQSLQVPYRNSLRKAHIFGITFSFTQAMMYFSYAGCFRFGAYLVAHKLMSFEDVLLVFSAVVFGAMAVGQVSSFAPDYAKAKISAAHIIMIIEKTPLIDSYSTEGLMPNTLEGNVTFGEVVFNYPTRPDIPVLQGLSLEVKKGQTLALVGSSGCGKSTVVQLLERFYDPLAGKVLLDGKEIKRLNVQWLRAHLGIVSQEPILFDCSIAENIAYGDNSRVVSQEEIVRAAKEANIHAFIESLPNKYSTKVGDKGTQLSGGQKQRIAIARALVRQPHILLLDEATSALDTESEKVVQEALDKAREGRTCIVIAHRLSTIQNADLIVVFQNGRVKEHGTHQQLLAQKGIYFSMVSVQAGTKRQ

[5] = system: metabolizing enzymes; assay: Concentration dependent degradation in rat liver microsomes; type: in vitro ADME; conditions: rat liver microsomes 0.3 mg/mL, 5 min, Michaelis-Menten fit
[6] = system: MDCK-MRP2 cells; conditions: ref Patel et al., 2014b; cited from earlier work
[7] = A-B transepithelial transport across Caco2 cells; type: in vitro ADME; conditions: human, Caco-2, pH 5
[8] = system: MDCK-MDR1 cells; conditions: ref Patel et al., 2014b; cited from earlier work
[9] = biological target: T1, MRP2 (Homo sapiens, UniProt Q92887); assay: [3H]-LPV cellular uptake in MDCK-MRP2 cells; type: cell-based; conditions: compound 50 μM, DPBS pH 7.4, 37 °C, 30 min
T1 sequence (Q92887 whole entry): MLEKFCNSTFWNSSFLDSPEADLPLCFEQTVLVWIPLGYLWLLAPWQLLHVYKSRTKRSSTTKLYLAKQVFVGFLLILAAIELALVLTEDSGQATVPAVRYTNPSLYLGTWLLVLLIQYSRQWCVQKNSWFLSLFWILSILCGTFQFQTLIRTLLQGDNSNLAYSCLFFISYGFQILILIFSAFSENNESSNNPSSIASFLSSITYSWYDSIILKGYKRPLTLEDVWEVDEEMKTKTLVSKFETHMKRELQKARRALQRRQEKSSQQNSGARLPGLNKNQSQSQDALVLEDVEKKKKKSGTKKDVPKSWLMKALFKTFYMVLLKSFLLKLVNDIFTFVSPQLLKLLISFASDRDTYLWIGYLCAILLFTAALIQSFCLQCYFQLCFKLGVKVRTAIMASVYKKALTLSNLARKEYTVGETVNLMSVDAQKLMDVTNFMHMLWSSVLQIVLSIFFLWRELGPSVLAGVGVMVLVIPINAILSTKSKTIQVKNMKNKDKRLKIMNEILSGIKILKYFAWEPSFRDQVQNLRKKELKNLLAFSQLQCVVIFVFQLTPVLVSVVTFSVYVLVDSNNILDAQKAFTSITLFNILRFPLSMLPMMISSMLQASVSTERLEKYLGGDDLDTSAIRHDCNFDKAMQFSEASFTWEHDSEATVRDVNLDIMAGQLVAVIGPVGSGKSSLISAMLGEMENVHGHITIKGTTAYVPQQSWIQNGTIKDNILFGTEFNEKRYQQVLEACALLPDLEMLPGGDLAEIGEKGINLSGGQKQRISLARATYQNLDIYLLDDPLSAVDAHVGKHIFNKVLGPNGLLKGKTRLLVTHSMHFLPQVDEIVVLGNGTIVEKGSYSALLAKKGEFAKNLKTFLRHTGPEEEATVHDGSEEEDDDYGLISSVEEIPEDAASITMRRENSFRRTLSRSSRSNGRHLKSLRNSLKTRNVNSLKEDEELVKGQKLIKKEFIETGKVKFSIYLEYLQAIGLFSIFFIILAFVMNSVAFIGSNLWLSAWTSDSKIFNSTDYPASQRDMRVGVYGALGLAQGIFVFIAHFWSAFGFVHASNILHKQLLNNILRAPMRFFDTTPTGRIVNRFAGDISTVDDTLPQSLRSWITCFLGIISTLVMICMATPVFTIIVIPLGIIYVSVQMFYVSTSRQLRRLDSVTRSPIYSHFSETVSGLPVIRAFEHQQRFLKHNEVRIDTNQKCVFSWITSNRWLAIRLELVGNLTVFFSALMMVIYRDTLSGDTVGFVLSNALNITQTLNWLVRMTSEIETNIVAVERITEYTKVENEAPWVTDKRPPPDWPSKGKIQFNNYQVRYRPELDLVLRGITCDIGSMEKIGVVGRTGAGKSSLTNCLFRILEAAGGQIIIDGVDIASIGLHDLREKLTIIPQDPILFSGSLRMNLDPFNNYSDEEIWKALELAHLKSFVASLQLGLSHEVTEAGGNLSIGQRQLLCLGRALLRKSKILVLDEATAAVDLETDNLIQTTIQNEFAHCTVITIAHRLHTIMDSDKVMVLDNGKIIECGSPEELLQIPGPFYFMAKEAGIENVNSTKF

[10] = A-B transepithelial transport across MDCK-MRP2 cells; type: in vitro ADME; conditions: dog, pH 7.4
[11] = A-B transepithelial transport across MDCK-MDR1 cells; type: in vitro ADME; conditions: dog, MDCK-MDR1, pH 7.4
[12] = biological target: T1, MRP2; assay: Non-radiolabelled uptake of Val-Ile-LPV in MDCK-MRP2 cells with MRP2 inhibitor; type: cell-based; conditions: DPBS pH 7.4, 37 °C
[13] = system: peptide transporters; assay: [3H]-GlySar uptake in MDCK-MDR1 cells; type: cell-based; conditions: cold GlySar 10 mM, DPBS pH 7.4, 37 °C
[14] = system: peptide transporters; assay: [3H]-GlySar uptake in MDCK-MRP2 cells; type: cell-based; conditions: cold GlySar 10 mM, DPBS pH 7.4, 37 °C

Compound: Cc1cccc(C)c1OCC(=O)NC(Cc1ccccc1)C(CC(Cc1ccccc1)NC(=O)C(C(C)C)N1CCCNC1=O)OC(=O)C(NC(=O)C(N)C(C)C)C(C)C (centres unmarked) [valine-valine-LPV]
- Metabolic stability, fold increase relative to LPV [1]: 1.48 fold

Compound: Cc1cccc(C)c1OCC(=O)N[C@@H](Cc1ccccc1)[C@@H](O)C[C@H](Cc1ccccc1)NC(=O)[C@H](C(C)C)N1CCCNC1=O [LPV, lopinavir]
- Degradation rate constant in liver microsomes [3]: 6.0 ± 0.5 × 10^−3 min^−1 and 3.3 ± 0.3 × 10^−3 min^−1
- Enhancement of [3H]-LPV uptake in the presence of unlabelled compound [4]: 3.2 fold
- Vmax [5]: 8.1 ± 0.4 nmoles/min/mg protein
- Secretive (B-A) permeability [6]: 6.0 ± 0.1 × 10^−6 cm/s
- Papp A→B at 3 h, 25 μM [7]: 2.6 ×10⁻⁶ cm/s
- Apparent permeability, secretive (B-A) direction [8]: 5.8 ± 0.5 × 10^−6 cm/s
- Enhancement of [3H]-LPV uptake in the presence of unlabelled compound [9]: 2.5 fold
- Papp A→B at 3 h, 25 μM [10]: 2.7 ×10⁻⁶ cm/s

Compound: Triton-X
- Reduction in absorbance relative to control ([2]; 0.1%, positive control): 90%

Compound: CN(C)C(=O)CCSC(SCCC(=O)O)c1cccc(/C=C/c2ccc3ccc(Cl)cc3n2)c1 (centres unmarked) [MK 571]
- Uptake as % control (Val-Ile-LPV) ([12]; uptake of Val-Ile-LPV 50 μM in the presence of MK 571 25 μM): 104 ± 4 % control
- Uptake as % control (Val-Ile-LPV) ([12]; uptake of Val-Ile-LPV 50 μM in the presence of MK 571 75 μM): 102 ± 2 % control

Compound: CN(CC(=O)O)C(=O)CN [GlySar] (H-Gly-[Sar]-OH)
- Reduction in [3H]-GlySar uptake [13]: ~80%
- Reduction in [3H]-GlySar uptake [14]: ~80%

Compound: Cc1cccc(C)c1OCC(=O)NC(Cc1ccccc1)C(CC(Cc1ccccc1)NC(=O)C(C(C)C)N1CCCNC1=O)OC(=O)C(NC(=O)CN)C(C)C (centres unmarked) [glycine-valine-LPV]
- Metabolic stability, fold increase relative to LPV [1]: 2.44 fold

Reference: publication PMC4344907 (International journal of pharmaceutics, 2014)
